Measured values reported in PubChem BioAssay (NCI).
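Tested at 5 concentrations; 48 h exposure; 96-well plates; endpoints linearly interpolated, else capped at highest concentration. At the GI50, growth is halved. TGI: concentration producing complete growth inhibition.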

Columns and labels:
Assay in all cases: growth of human tumour cells (NCI), 48 h
EKVX NSCLC = tested on: EKVX NSCLC
NCI-H226 lung = tested on: NCI-H226 lung
OVCAR-5 ovarian = tested on: OVCAR-5 ovarian
OVCAR-8 ovarian = tested on: OVCAR-8 ovarian
OVCAR-3 ovarian = tested on: OVCAR-3 ovarian
NCI/ADR-RES ovarian = tested on: NCI/ADR-RES ovarian
DU-145 prostate = tested on: DU-145 prostate
UO-31 renal = tested on: UO-31 renal
MALME-3M melanoma = tested on: MALME-3M melanoma
HS 578T breast = tested on: HS 578T breast

Row | SMILES | GI50 (EKVX NSCLC) [µM] | TGI (EKVX NSCLC) [µM] | GI50 (NCI-H226 lung) [µM] | TGI (NCI-H226 lung) [µM] | GI50 (OVCAR-5 ovarian) [µM] | TGI (OVCAR-5 ovarian) [µM] | GI50 (OVCAR-8 ovarian) [µM] | TGI (OVCAR-8 ovarian) [µM] | GI50 (OVCAR-3 ovarian) [µM] | TGI (OVCAR-3 ovarian) [µM] | GI50 (NCI/ADR-RES ovarian) [µM] | TGI (NCI/ADR-RES ovarian) [µM] | GI50 (DU-145 prostate) [µM] | TGI (DU-145 prostate) [µM] | GI50 (UO-31 renal) [µM] | TGI (UO-31 renal) [µM] | GI50 (MALME-3M melanoma) [µM] | TGI (MALME-3M melanoma) [µM] | GI50 (HS 578T breast) [µM] | TGI (HS 578T breast) [µM]
1 | O=C1C(=O)c2c(nc3ccc(Cl)cn23)-c2ccccc21 | 1.65 | 3.38 | 1.65 | 3.49 | 0.593 | 1.15 | 0.471 | 1.91 | 0.249 | 0.908 | 0.344 | 2.04 | 0.223 | 0.452 | 0.306 | 3.47 | 0.171 | 0.368 | 0.239 | 0.74
2 | C=CC(=O)N1CCN(c2ccc3cccc(NC(=O)c4cnc(C)cn4)c3n2)CC1 | 12.4 | > 100 | 4.44 | 22.3 | 16.5 | 81.7 | 3.46 | > 100 | 2.91 | > 100 | 3.19 | > 100 | 2.45 | > 100 | 0.351 | 5.14 | 2.89 | 15.9 | 2.28 | 26.3
3 | C=CC(=O)Nc1cccc(C)c1Nc1cc(-c2cccnc2Cc2c(C)c(OC)cc(OC)c2C)ncn1 | 28.8 | > 100 | 10.5 | 63 | 27.4 | > 100 | 12 | 50 | 7.04 | 38.9 | 9.9 | 38 | 16.7 | > 100 | 18.4 | > 100 | 17.8 | 49 | 10.6 | 68.3
4 | N=C(N)c1ccc(N2CCCN(c3ccc(C(=N)N)cc3)CC2)cc1 | 42.4 | > 100 | 84.7 | > 100 | > 100 | > 100 | 49.6 | > 100 | 72.4 | > 100 | > 100 | > 100 | 46.7 | > 100 | > 100 | > 100 | 39.6 | > 100 | 32.4 | 96.9
5 | O[C@H]1CO[C@H]2[C@@H]1OC[C@@H]2Oc1ccc(Nc2ccnc(Nc3ccc(O[C@H]4CO[C@H]5[C@@H]4OC[C@@H]5O)c(Cl)c3)n2)cc1Cl | 2.4 | 8.86 | 1.48 | 3.61 | 2.47 | 8.03 | 1.38 | 11.3 | 1.56 | 7.17 | 5.82 | > 100 | 1.56 | 4.19 | 1.55 | 3.06 | 1.09 | 3.09 | 1.29 | 4.8
6 | O=C(c1ccccc1)C(CN1CCOCC1)c1ccccc1 (stereo not given) | 3.32 | 16.9 | 2.79 | 9.33 | 2.65 | 5.3 | 1.52 | 3.22 | 0.465 | 1.66 | 2.83 | 14.1 | 1.16 | 2.44 | 1.41 | 3.02 | 1.79 | 4.03 | 1.77 | 8.37
7 | CN(C)CCCN1c2ccccc2CCc2ccc(Cl)cc21 | 10.9 | 26.4 | 7.22 | 22.5 | 4.07 | 16.2 | 8.23 | 23.6 | 9.17 | 23.1 | 3.33 | 14.8 | 10.8 | 23.1 | 5.17 | 19.7 | 2.03 | 3.99 | 10.6 | 77.1
8 | Cc1ccc(C2=NOC3=c4ccccc4=CSC3=C2c2ccc([N+](=O)[O-])cc2)cc1 | 24.4 | 93.6 | 14 | 34 | 25.2 | > 100 | 6.22 | 40.5 | 10 | 41.9 | 31.4 | > 100 | 15.2 | > 100 | 27.8 | > 100 | 17.7 | 89.5 | 22.9 | 94.9
9 | COc1ccc(C(OCC2OC(n3ccc(NC(=O)c4ccccc4)nc3=O)C(O)C2O)(c2ccccc2)c2ccccc2)cc1 (stereo not given) |  | 6.1 |  | 7.87 |  | 3.79 |  | 3.22 |  | 3.15 |  | 4.89 |  | 10.3 |  | 11.4 |  | 3.73 |  | 4.86
